Usually inhibition stands for the percentage by which the read-out fell short of the control.

3 molecules from PMC8212708 (Clinical and Translational Science, 2021) can be followed below.

This assay concerns the target T1, human glucose transporter-1 (hGLUT-1) (Homo sapiens, UniProt P11166).
T1 sequence (P11166 1-492): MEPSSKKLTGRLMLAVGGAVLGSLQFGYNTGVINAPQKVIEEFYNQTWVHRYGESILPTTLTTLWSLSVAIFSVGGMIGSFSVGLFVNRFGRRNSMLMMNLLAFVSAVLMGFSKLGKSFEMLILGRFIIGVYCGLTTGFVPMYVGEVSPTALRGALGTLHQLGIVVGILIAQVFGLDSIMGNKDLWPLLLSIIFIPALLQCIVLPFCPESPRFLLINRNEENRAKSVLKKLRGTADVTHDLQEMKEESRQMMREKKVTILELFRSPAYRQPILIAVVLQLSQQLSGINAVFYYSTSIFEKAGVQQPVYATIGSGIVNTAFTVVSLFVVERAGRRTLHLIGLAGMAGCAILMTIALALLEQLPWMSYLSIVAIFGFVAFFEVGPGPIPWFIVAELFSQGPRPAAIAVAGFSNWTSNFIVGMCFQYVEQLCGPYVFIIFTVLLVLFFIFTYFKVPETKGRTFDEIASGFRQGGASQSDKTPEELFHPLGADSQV
Nature of the assay: inhibition of [3H]2-DG. To be noted: FaDu, read-out: % inhibition at 25 μM. Format: cell-based.
For the molecule `C#Cc1cccc(Nc2ncnc3cc(OC)c(OCCCCCCC(=O)NO)cc23)c1` [CUDC-101], the inhibition at 25 µM fell in the range of 80 to 90%.

On to `CC(C)c1cc(-c2n[nH]c(=O)n2-c2ccc3c(ccn3C)c2)c(O)cc1O` [Ganetespib], for which the inhibition at 25 µM was greater than 50%.

As for `O=c1c(-c2ccc(O)cc2)coc2cc(O)cc(O)c12` [genistein], the inhibition at 25 µM is greater than 50%.
